≈ marks a conversion by molar mass, not a printed value. Like-named read-outs stand apart in the source and are kept apart here. Where a SMILES comes first, the peptide text is derived from it. Where no end group is shown, it is not given here. [ ]: non-standard residue; d: D form.
Legend:
[1] = system: gram-negative strains tested; experiment: Geometric mean of MICs, gram-negative strains; assay type: cell-based; details: 5 gram-negative strains; >128 apparently counted as 256; read-out: nGM (–), geometric mean of the MICs against gram-negative strains
Protocol: (§1) Briefly, the bacteria were incubated overnight at 37 °C with constant shaking at 220 rpm, then were transferred to new MH broth (MHB) medium until they reached the logarithmic phase of growth. The bacteria were then diluted to 10^5 (CFU)/mL in MHB. The peptides were dissolved and diluted in 0.01% acetic acid and 0.2% bovine serum albumin (BSA) at various concentrations (0.5–128 μM) in each well of sterile 96-well plates and incubated for 20 h at 37 °C. […] The test was repeated three times.

S. epidermidis 12228 = experiment: microbe, parasite or virus in culture; assay type: cell-based
Protocol: (§2) The test strains, including Gram-negative E. coli ATCC25922, E. coli ATCC 1005, S. typhimurium C7731, P. aeruginosa ATCC 27853, S. Typhimurium 14028, Gram-positive S. aureus ATCC29213, S. aureus ATCC 25923, S. epidermidis ATCC 12228 and S. aureus 43300, were obtained from the School of Veterinary Medicine, Northeast Agricultural University (Harbin, China).
as §1

S. typhimurium 14028 = experiment: microbe, parasite or virus in culture; assay type: cell-based
Protocol: as §2, §1

P. aeruginosa 27853 = experiment: microbe, parasite or virus in culture; assay type: cell-based
Protocol: as §2, §1

S. typhimurium 7731 = experiment: microbe, parasite or virus in culture; assay type: cell-based
Protocol: as §2, §1

S. aureus 25923 = experiment: microbe, parasite or virus in culture; assay type: cell-based, Staphylococcus aureus
Protocol: as §2, §1

S. aureus 29213 = experiment: microbe, parasite or virus in culture; assay type: cell-based, Staphylococcus aureus
Protocol: as §2, §1

[2] = system: all the 9 bacteria tested; experiment: Geometric mean of MICs, all 9 bacteria; assay type: cell-based; details: for GM MIC (range of Gram-negative and Gram-positive geometric means): Table 2; for tGM, geometric mean of the MICs against all the 9 bacteria: all 9 bacteria tested
Protocol: as §1

E. coli UB 1005 = experiment: microbe, parasite or virus in culture; assay type: cell-based, Escherichia coli
Protocol: as §2, §1

E. coli 25922 = experiment: microbe, parasite or virus in culture; assay type: cell-based, Escherichia coli
Protocol: as §2, §1

[3] = system: gram-positive strains tested; experiment: organism not typed; assay type: cell-based
Protocol: as §1

[4] = system: human red blood cells (hRBCs); experiment: Hemolysis assay; assay type: cell-based
Protocol: Figure 2 (A) Hemolytic activity of the engineered peptides against human red blood cells (hRBCs). The hRBCs were incubated with equal amounts of the respective peptides dissolved in PBS for 1 h at 37 °C. (B) Cytotoxicity of the engineered peptides against RAW264.7. […] Data shown are three independent experiments.
The hemolytic activity of the peptides is determined by measuring the amount of hemoglobin released during the lysis of human erythrocytes at different concentrations of AMPs. Briefly, fresh, healthy human red blood cells (hRBCs) were collected and then washed three times with phosphate-buffered saline (PBS) buffer (pH 7.2) and centrifuged at 1000× g for 5 min. Each 50 µL sample of hRBCs was incubated with 50 µL of the respective peptide dissolved in PBS in a well of a 96-well plate for 1 h at 37 °C. After incubation, the samples were centrifuged at 1000× g for 5 min and the supernatants (50 μL) were transferred to a new 96-well microplate. The release of hemoglobin was measured by monitoring the OD at 570 nm (Tecan, Salzburg, Austria). Negative (hRBCs without AMP treatment) and positive (hRBCs treated with 0.1% TritonX-100) controls were used. The concentration of peptide that caused 5% hemolysis was considered the minimal hemolysis concentration (MHC). The test was repeated three times. The percent hemolysis was calculated using the following formula:(2) Percent hemolysis=A−A0/At−A0× 100% A0 and At represent 0% and 100% hemolysis as measured in 10 mM PBS and 0.2% Triton X-100, respectively.

MRSA43300 = experiment: microbe, parasite or virus in culture; assay type: cell-based, Methicillin-resistant Staphylococcus aureus
Protocol: as §2, §1

[5] = system: Gram-positive and Gram-negative bacteria; experiment: Antimicrobial assay (MIC), statement over all strains; assay type: cell-based; details: all strains tested
Protocol: as §1

Row | Compound | MIC [1] [µM] | MIC (S. epidermidis 12228; 12228, 20 h) [µM] | MIC (S. typhimurium 14028; 14028, 20 h) [µM] | MIC (P. aeruginosa 27853; 27853, 20 h, read-out: MIC) [µM] | MIC (S. typhimurium 7731; 7731, 20 h) [µM] | MIC (S. aureus 25923; 25923, 20 h) [µM] | MIC (S. aureus 29213; 29213, 20 h) [µM] | tGM, geometric mean of the MICs against all the 9 bacteria [2] [µM] | MIC (E. coli UB 1005; UB 1005, 20 h) [µM] | MIC (E. coli 25922; 25922, 20 h) [µM] | pGM (+), geometric mean of the MICs against gram-positive strains ([3]; 20 h) [µM] | MHC5, minimum hemolytic concentration that induced ≥5% hemolysis ([4]; red cells of human, 1 h) [µM] | MIC (MRSA43300; 20 h) [µM] | further results
1 | O=C(N[C@H](CO)[C@H](O)c1ccc([N+](=O)[O-])cc1)C(Cl)Cl [CH, Chloramphenicol, reference compound] | 18.4 (≈ 5.95 µg/mL) | – | – | – | – | – | – | – | – | – | – | – | – | MIC (S. epidermidis 12228; Staphylococcus epidermidis, S. epidermidis 12228, MHB, 10^5 CFU/mL, 20 h 37 °C, repeated three times): 32 µM (≈ 10.3 µg/mL); MIC (S. typhimurium 14028; Salmonella enterica, S. typhimurium 14028, MHB, 10^5 CFU/mL, 20 h 37 °C, repeated three times): 16 µM (≈ 5.17 µg/mL); MIC (P. aeruginosa 27853; Pseudomonas aeruginosa, 27853, 20 h): > 128 µM; MIC (S. typhimurium 7731; Salmonella enterica, S. typhimurium 7731, MHB, 10^5 CFU/mL, 20 h 37 °C, repeated three times): 8 µM (≈ 2.59 µg/mL); MIC (S. aureus 25923; Staphylococcus aureus, S. aureus 25923, MHB, 10^5 CFU/mL, 20 h 37 °C, repeated three times): 32 µM (≈ 10.3 µg/mL); MIC (S. aureus 29213; Staphylococcus aureus, S. aureus 29213, MHB, 10^5 CFU/mL, 20 h 37 °C, repeated three times): 8 µM (≈ 2.59 µg/mL); GM MIC (range of Gram-negative and Gram-positive geometric means) [2]: 18.4 to 22.6 µM; MIC ([2]; read-out: tGM, geometric mean of the MICs against all the 9 bacteria): 20.2 µM (≈ 6.53 µg/mL); MIC (E. coli UB 1005; Escherichia coli, UB1005, E. coli UB 1005, MHB, 10^5 CFU/mL, 20 h 37 °C, repeated three times): 4 µM (≈ 1.29 µg/mL); MIC (E. coli 25922; Escherichia coli, E. coli 25922, MHB, 10^5 CFU/mL, 0.5–128 μM peptide, 20 h 37 °C, OD 492 nm, repeated three times): 16 µM (≈ 5.17 µg/mL); MIC ([3]; read-out: pGM (+), geometric mean of the MICs against gram-positive strains): 22.6 µM (≈ 7.3 µg/mL); MHC5, minimum hemolytic concentration that induced ≥5% hemolysis ([4]; human red blood cells, PBS, 1 h at 37 °C, OD 570 nm, repeated three times): >128 µM; MIC (MRSA43300; Staphylococcus aureus, MRSA43300, MHB, 10^5 CFU/mL, 20 h 37 °C, repeated three times): 32 µM (≈ 10.3 µg/mL)
2 | CC[C@H](C)[C@H](N)C(=O)N[C@@H](CCCNC(=N)N)C(=O)N1CCC[C@@H]1C(=O)N[C@H](C(=O)N[C@@H](CCCNC(=N)N)C(=O)N1CCC[C@@H]1C(=O)O)[C@@H](C)CC [DIR1] (H-IR[dP]IR[dP]-OH) | 256 (≈ 192 µg/mL) | >128 | >128 | >128 | >128 | >128 | >128 | 256 | >128 | >128 | 256 | >128 | >128 | MIC in the presence of Gram-positive and Gram-negative bacteria [5]: greater than 128 μM
3 | CC[C@H](C)[C@H](N)C(=O)N[C@@H](CCCNC(=N)N)C(=O)N[C@H](C(=O)N[C@@H](CCCNC(=N)N)C(=O)N1CCC[C@@H]1C(=O)N[C@H](C(=O)N[C@@H](CCCNC(=N)N)C(=O)N[C@H](C(=O)N[C@@H](CCCNC(=N)N)C(=O)N1CCC[C@@H]1C(=O)O)[C@@H](C)CC)[C@@H](C)CC)[C@@H](C)CC [DIR2] (H-IRIR[dP]IRIR[dP]-OH) | 194.0 (≈ 250 µg/mL) | >128 | >128 | >128 | >128 | >128 | >128 | 219.5 | 128 (≈ 165 µg/mL) | 128 (≈ 165 µg/mL) | 256 | >128 | >128 | –
4 | CC[C@H](C)[C@H](N)C(=O)N[C@@H](CCCNC(=N)N)C(=O)N[C@H](C(=O)N[C@@H](CCCNC(=N)N)C(=O)N[C@H](C(=O)N[C@@H](CCCNC(=N)N)C(=O)N1CCC[C@@H]1C(=O)N[C@H](C(=O)N[C@@H](CCCNC(=N)N)C(=O)N[C@H](C(=O)N[C@@H](CCCNC(=N)N)C(=O)N[C@H](C(=O)N[C@@H](CCCNC(=N)N)C(=O)N1CCC[C@@H]1C(=O)O)[C@@H](C)CC)[C@@H](C)CC)[C@@H](C)CC)[C@@H](C)CC)[C@@H](C)CC [DIR3] (H-IRIRIR[dP]IRIRIR[dP]-OH) | – | 128 (≈ 234 µg/mL) | 16 (≈ 29.3 µg/mL) | 8 (≈ 14.6 µg/mL) | 4 (≈ 7.31 µg/mL) | 64 (≈ 117 µg/mL) | 8 (≈ 14.6 µg/mL) | – | 4 (≈ 7.31 µg/mL) | 4 (≈ 7.31 µg/mL) | 45.3 | >128 | 64 (≈ 117 µg/mL) | –
5 | Colistin Sulfate [CS, reference compound] | 0.8 | – | – | – | – | – | – | 5.9 | – | – | – | – | – | MIC (S. epidermidis 12228; S. epidermidis 12228, MHB, 10^5 CFU/mL, 20 h 37 °C, repeated three times): 128 µM; MIC (S. typhimurium 14028; S. typhimurium 14028, MHB, 10^5 CFU/mL, 20 h 37 °C, repeated three times): 4 µM; MIC (P. aeruginosa 27853; P. aeruginosa 27853, MHB, 10^5 CFU/mL, 20 h 37 °C, repeated three times, read-out: MIC): 0.5 µM; MIC (S. typhimurium 7731; S. typhimurium 7731, MHB, 10^5 CFU/mL, 20 h 37 °C, repeated three times): 0.5 µM; MIC (S. aureus 25923; S. aureus 25923, MHB, 10^5 CFU/mL, 20 h 37 °C, repeated three times): 64 µM; MIC (S. aureus 29213; S. aureus 29213, MHB, 10^5 CFU/mL, 20 h 37 °C, repeated three times): 64 µM; GM MIC (range of Gram-negative and Gram-positive geometric means) [2]: 0.8 to 76.1 µM; MIC (E. coli UB 1005; E. coli UB 1005, MHB, 10^5 CFU/mL, 20 h 37 °C, repeated three times): 0.5 µM; MIC (E. coli 25922; E. coli 25922, MHB, 10^5 CFU/mL, 0.5–128 μM peptide, 20 h 37 °C, OD 492 nm, repeated three times): 0.5 µM; pGM (+), geometric mean of the MICs against gram-positive strains ([3]; 4 gram-positive strains, >128 apparently counted as 256): 76.1 µM; MIC (MRSA43300; MRSA43300, MHB, 10^5 CFU/mL, 20 h 37 °C, repeated three times): 64 µM
6 | IRIRIRPIRIRIRP [IR3] | 12.1 | >128 | 16 | 8 | 16 | 64 | 64 | – | 8 | 16 | 90.5 | >128 | 64 | –
7 | IRIRPIRIRP [IR2] | 256 | >128 | >128 | >128 | >128 | >128 | >128 | 256 | >128 | >128 | 256 | >128 | >128 | –
8 | IRPIRP [IR1] | 256 | >128 | >128 | >128 | >128 | >128 | >128 | 256 | >128 | >128 | 256 | >128 | >128 | MIC in the presence of Gram-positive and Gram-negative bacteria [5]: greater than 128 μM

— article PMC6928678, “Simplified Head-to-Tail Cyclic Polypeptides as Biomaterial-Associated Antimicrobials with Endotoxin Neutralizing and Anti-Inflammatory Capabilities” (International Journal of Molecular Sciences, 2019)
